Experimental data taken from patent EP0993460B1, “BENZO(5,6)CYCLOHEPTA(1,2B)PYRIDINE DERIVATIVES USEFUL FOR INHIBITION OF FARNESYL PROTEIN TRANSFERASE” (SCHERING CORPORATION, priority 1997, dated 1998).

System: COS Cell
Assay: COS Cell IC50 (Cell-Based Assay), procedures of WO 95/10516
Protocol: FPT IC50 (inhibition of farnesyl protein transferase, in vitro enzyme assay) and COS Cell IC50 (Cell-Based Assay) were determined following the assay procedures described in WO 95/10516, published April 20, 1995. GGPT IC50 (inhibition of geranylgeranyl protein transferase, in vitro enzyme assay), Cell Mat Assay, and anti-tumor activity (in vivo anti-tumor studies) could be determined by the assay procedures described in WO 95/ 10516. The disclosure of WO 95/10516 is incorporated herein by reference thereto.

## CC1(CC(=O)N2CCC([C@H]3c4ncc(Br)cc4CCc4cc(Cl)cc(Br)c43)CC2)CCN(S(C)(=O)=O)CC1 [Example 1, (+) -4-(3,10-dibromo-8-chloro-6,11-dihydro-5H-benzo[5,6]cyclohepta[1,2-b]pyridin-11(R)-yl)-1-[[4-methyl-1-(methylsulfonyl)-4-pyridinyl]acetyl]piperidine]
  IC50: 22 nM
